In ChEMBL document CHEMBL5380794, “Discovery of a Potent and Selective STAT5 PROTAC Degrader with Strong Antitumor Activity In Vivo in Acute Myeloid Leukemia” (J Med Chem, 2023):
One block for each compound: values may come before it. Active and inactive are the calls of the source. The rule behind the calls is not given here.

How the values were obtained:
[1] = biological target: T1, Signal transducer and activator of transcription 5A (Homo sapiens, UniProt P42229); assay: Binding affinity to N-terminal 6his-tagged human STAT5A (136 to 705 residues) expressed in Escherichia coli BL21-DE3 rosetta cells assessed as inhibition constant by FP assay
T1 sequence (P42229 whole entry): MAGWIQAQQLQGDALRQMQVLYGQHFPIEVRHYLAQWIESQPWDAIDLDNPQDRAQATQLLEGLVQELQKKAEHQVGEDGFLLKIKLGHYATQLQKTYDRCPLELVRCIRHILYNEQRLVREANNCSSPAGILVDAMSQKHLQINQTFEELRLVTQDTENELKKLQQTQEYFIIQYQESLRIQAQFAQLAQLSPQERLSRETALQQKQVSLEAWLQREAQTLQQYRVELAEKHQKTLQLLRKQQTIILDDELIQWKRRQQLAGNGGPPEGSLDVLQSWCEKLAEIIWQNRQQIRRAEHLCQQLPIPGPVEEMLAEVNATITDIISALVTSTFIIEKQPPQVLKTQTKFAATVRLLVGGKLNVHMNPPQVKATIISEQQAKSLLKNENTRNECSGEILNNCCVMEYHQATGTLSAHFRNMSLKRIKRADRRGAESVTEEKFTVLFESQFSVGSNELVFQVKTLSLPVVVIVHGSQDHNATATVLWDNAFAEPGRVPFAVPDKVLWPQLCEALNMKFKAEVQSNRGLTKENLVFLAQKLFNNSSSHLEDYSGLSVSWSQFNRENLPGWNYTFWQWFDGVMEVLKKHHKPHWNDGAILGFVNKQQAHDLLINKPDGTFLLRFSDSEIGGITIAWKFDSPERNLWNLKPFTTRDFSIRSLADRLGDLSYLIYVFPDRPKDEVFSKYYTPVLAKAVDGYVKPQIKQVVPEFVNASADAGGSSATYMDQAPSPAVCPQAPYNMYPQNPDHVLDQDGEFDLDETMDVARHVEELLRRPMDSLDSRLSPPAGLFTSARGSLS

[2] = biological target: T2, Signal transducer and activator of transcription 5A (Homo sapiens) (UniProt P42229); assay: Inhibition of STAT5 phosphorylation in human MV4-11 cells assessed as reduction in STAT5 level at 1 uM measured for 6 hrs by Western blot analysis; format: cell-based
T2 sequence (whole entry): T1 sequence (P42229 whole entry)

MV4-11 [3] = assay: Effect on STAT3 level in human MV4-11 cells upto 5 uM measured for 18 hrs by Western blot analysis; format: functional, cell-based
MV4-11 [4] = assay: Effect on STAT2 level in human MV4-11 cells upto 5 uM measured for 18 hrs by Western blot analysis; format: functional, cell-based
SKNO-1 [5] = assay: Effect on STAT4 level in human SKNO-1 cells upto 5 uM measured for 18 hrs by Western blot analysis; format: functional, cell-based
MV4-11 [6] = assay: Effect on STAT1 level in human MV4-11 cells upto 5 uM measured for 18 hrs by Western blot analysis; format: functional, cell-based
SKNO-1 [7] = assay: Effect on STAT3 level in human SKNO-1 cells upto 5 uM measured for 18 hrs by Western blot analysis; format: functional, cell-based
SKNO-1 [8] = assay: Effect on STAT2 level in human SKNO-1 cells upto 5 uM measured for 18 hrs by Western blot analysis; format: functional, cell-based
SKNO-1 [9] = assay: Effect on STAT6 level in human SKNO-1 cells upto 5 uM measured for 18 hrs by Western blot analysis; format: functional, cell-based
[10] = biological target: T3, Signal transducer and activator of transcription 5B (Homo sapiens, UniProt P51692); assay: Binding affinity to STAT5B (unknown origin) assessed as inhibition constant by FP assay
T3 sequence (P51692 whole entry): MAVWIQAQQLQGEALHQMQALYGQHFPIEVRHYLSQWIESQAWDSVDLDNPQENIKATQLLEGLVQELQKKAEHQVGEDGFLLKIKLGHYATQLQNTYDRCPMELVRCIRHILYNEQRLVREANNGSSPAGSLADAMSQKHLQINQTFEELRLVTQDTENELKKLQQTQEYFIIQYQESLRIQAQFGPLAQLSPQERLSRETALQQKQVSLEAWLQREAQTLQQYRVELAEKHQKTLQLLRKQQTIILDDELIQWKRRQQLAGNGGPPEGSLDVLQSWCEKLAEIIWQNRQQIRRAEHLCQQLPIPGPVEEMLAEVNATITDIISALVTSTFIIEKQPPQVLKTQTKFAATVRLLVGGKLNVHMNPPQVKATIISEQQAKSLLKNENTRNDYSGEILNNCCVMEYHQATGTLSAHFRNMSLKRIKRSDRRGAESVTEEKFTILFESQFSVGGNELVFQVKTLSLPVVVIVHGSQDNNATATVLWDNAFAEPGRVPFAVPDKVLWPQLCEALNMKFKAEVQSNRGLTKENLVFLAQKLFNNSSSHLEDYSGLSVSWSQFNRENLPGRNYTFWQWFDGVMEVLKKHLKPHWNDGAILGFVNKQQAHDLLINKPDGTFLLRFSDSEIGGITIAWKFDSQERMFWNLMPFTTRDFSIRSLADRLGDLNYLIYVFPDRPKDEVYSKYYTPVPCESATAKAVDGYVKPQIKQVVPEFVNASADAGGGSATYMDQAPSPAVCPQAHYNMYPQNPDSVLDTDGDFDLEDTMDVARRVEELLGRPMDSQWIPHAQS

SKNO-1 [11] = assay: Effect on STAT1 level in human SKNO-1 cells upto 5 uM measured for 18 hrs by Western blot analysis; format: functional, cell-based
[12] = biological target: T2, Signal transducer and activator of transcription 5A (Homo sapiens); assay: Inhibition of STAT5 phosphorylation in human MV4-11 cells assessed as reduction in […] phosphorylation at Y694 residue at 0.2 uM measured for 6 hrs by Western blot analysis; format: cell-based
MV4-11 [13] = assay: Effect on STAT6 level in human MV4-11 cells upto 5 uM measured for 18 hrs by Western blot analysis; format: functional, cell-based
Protein cereblon = Protein cereblon (Homo sapiens, UniProt Q96SW2); assay: Binding affinity to GST-tagged wild type human CRBN assessed as inhibition constant by TR-FRET assay
[14] = biological target: T4, Signal transducer and activator of transcription 6 (Homo sapiens, UniProt P42226); assay: Binding affinity to STAT6 SH2 domain (unknown origin) assessed as inhibition constant by FP assay
T4 sequence (P42226 whole entry): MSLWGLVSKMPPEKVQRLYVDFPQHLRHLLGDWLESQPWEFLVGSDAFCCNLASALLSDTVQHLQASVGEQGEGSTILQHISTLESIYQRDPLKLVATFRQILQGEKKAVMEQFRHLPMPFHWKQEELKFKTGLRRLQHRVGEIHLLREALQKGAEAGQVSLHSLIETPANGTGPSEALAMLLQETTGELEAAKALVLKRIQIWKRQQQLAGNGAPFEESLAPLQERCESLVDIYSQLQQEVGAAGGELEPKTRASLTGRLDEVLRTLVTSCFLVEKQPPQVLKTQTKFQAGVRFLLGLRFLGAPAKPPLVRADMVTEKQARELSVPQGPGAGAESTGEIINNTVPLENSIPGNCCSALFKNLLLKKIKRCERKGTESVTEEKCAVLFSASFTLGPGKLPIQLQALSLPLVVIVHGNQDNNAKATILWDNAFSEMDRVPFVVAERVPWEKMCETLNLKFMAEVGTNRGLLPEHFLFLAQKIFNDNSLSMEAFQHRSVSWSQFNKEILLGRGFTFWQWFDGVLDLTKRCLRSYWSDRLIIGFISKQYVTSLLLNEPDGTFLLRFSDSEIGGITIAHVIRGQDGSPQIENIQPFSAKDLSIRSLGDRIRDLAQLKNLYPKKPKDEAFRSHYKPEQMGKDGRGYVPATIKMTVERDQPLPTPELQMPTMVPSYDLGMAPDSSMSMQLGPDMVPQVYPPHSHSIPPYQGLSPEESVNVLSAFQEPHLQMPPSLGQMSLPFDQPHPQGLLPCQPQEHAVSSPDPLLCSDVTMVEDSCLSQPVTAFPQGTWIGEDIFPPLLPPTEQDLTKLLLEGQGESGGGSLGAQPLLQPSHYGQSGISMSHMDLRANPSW

[15] = biological target: T1, Signal transducer and activator of transcription 5A; assay: Induction of STAT5 degradation in human SKNO-1 cells measured for 18 hrs by Western blot analysis; format: cell-based
[16] = biological target: T4, Signal transducer and activator of transcription 6; assay: Induction of STAT6 degradation in human SKNO-1 cells measured for 18 hrs by Western blot analysis; format: cell-based; details: read-out: DC50
[17] = biological target: T2, Signal transducer and activator of transcription 5A (Homo sapiens); assay: Induction of STAT5 degradation in human SKNO-1 cells assessed as maximal degradation at 0.05 to 5 uM measured for 18 hrs by Western blot analysis relative to control; format: cell-based; details: dose 0.05-5 µM
Homo sapiens = species: Homo sapiens; assay: Selectivity ratio of DC50 for induction of STAT5 degradation in human SKNO-1 cells to DC50 for STAT6 degradation in human SKNO-1 cells; format: cell-based

Chain of Protein cereblon (Q96SW2 whole entry, the tested form may be a part): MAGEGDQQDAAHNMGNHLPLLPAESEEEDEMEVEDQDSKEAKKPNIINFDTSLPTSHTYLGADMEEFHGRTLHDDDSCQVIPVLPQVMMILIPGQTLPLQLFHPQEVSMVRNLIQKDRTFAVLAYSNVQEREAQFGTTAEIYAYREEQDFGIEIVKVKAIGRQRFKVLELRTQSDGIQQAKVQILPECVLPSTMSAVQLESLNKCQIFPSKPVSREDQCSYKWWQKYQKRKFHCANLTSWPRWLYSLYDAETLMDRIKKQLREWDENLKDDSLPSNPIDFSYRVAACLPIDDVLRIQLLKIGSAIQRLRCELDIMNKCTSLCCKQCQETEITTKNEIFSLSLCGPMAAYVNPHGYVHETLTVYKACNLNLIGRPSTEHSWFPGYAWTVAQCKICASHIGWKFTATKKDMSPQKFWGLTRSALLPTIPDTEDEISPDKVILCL

SMILES: CN(C)C(=O)CCN(C(=O)[C@@H]1CCCN1C(=O)[C@@H](NC(=O)c1cc2cc(C(F)(F)P(=O)(O)O)ccc2s1)C(C)(C)C)c1ccc(-c2nccs2)cc1
Ki [1]: 1000 nM
inhibition [2]: inactive
Activity (MV4-11 [3]): inactive
Activity (MV4-11 [4]): inactive
Activity (SKNO-1 [5]): inactive
Activity (MV4-11 [6]): inactive
Activity (SKNO-1 [7]): inactive
Activity (SKNO-1 [8]): inactive
Activity (SKNO-1 [9]): inactive
Ki [10]: 1000 nM
Activity (SKNO-1 [11]): inactive
inhibition [12]: inactive
Activity (MV4-11 [13]): inactive

SMILES: CN(C)C(=O)CCN(C(=O)[C@@H]1CCCN1C(=O)[C@H](Cc1ccc(F)cc1)NC(=O)c1cc2cc(C(F)(F)P(=O)(O)O)ccc2s1)c1ccc(-c2nccs2)cc1
Ki [1]: 1000 nM
Ki [14]: 3500 nM
Ki [10]: 1700 nM

SMILES: CN(CCCC#Cc1cccc2c1CN(C1CCC(=O)NC1=O)C2=O)C(=O)CCN(C(=O)[C@@H]1CCCN1C(=O)[C@@H](NC(=O)c1cc2cc(C(F)(F)P(=O)(O)O)ccc2s1)C(C)(C)C)c1ccc(Br)cc1 (stereo partly specified)
DC50 [15]: 190 nM
DC50 [16]: > 5000 nM
Emax [17]: > 95%

SMILES: CN(C)C(=O)CCN(C(=O)[C@@H]1CCCN1C(=O)[C@H](Cc1ccc(C(F)(F)F)cc1)NC(=O)c1cc2cc(C(F)(F)P(=O)(O)O)ccc2s1)c1ccc(-c2nccs2)cc1
Ki [1]: 2300 nM
Ki [14]: 4000 nM
Ki [10]: 2500 nM

The next lines start with results.

inhibition [2]: inactive
Ki (Protein cereblon): > 5000 nM
inhibition [12]: inactive
SMILES: CN(CCCC#Cc1cccc2c1CN(C1CCC(=O)N(C)C1=O)C2=O)C(=O)CCN(C(=O)[C@@H]1CCCN1C(=O)[C@@H](NC(=O)c1cc2cc(C(F)(F)P(=O)(O)O)ccc2s1)C(C)(C)C)c1ccc(-c2nccs2)cc1 (stereo partly specified)
Activity (MV4-11 [3]): inactive
Activity (MV4-11 [4]): inactive
Activity (SKNO-1 [5]): inactive
Activity (MV4-11 [6]): inactive
Activity (SKNO-1 [7]): inactive
Activity (SKNO-1 [8]): inactive
Activity (SKNO-1 [9]): inactive
Activity (SKNO-1 [11]): inactive
Activity (MV4-11 [13]): inactive

Ki [1]: 1200 nM
Ki [14]: 200 nM
Ki [10]: 1000 nM
SMILES: CN(C)C(=O)CCN(C(=O)[C@@H]1CCCN1C(=O)[C@@H](NC(=O)c1cc2cc(C(F)(F)P(=O)(O)O)ccc2s1)C(C)(C)C)c1ccc2ccccc2c1

DC50 [15]: 230 nM
DC50 [16]: > 5000 nM
Emax [17]: > 95%
SMILES: CC(C)(C)[C@H](NC(=O)c1cc2cc(C(F)(F)P(=O)(O)O)ccc2s1)C(=O)N1CCC[C@H]1C(=O)N(CCC(=O)NCCCC#Cc1cccc2c1CN(C1CCC(=O)NC1=O)C2=O)c1ccc(Br)cc1 (stereo partly specified)
Ratio (Homo sapiens): > 20
